The source of these data is patent US12110503B2, “Method for differentiation of ocular cells and use thereof” (FUJIFILM Cellular Dynamics, Inc., priority 2018, dated 2024).

This experiment has as its system anterior neuroectoderm cells. The experiment can be described thus: Retinal differentiation with removal of the BMP inhibitor (RD1 then RD2). The format is cell-based, human. The settings on record: RD1 with LDN193189 about 2 days, then RD2 without. As for the experimental part: In some aspects, the cells may be first differentiated in the presence of a BMP inhibitor, such as LDN1913189, for a period of time before differentiation in the absence of a BMP inhibitor. First, the anterior neuroectoderm cells are cultured in RD1 comprising a BMP pathway inhibitor, such as LDN193189, for about 1-3 days, such as 2 days. […] The second step may be for about 5-10 days, such as about 7 days, to continue differentiating the anterior neuroectoderm cells. […] VSX2 is the earliest specific marker of neural RPC within the optic vesicle and cup (Rowan, et al., 2004). VSX2^+ retinal progenitors can give rise to all cell types of the neural retina: cones, rods, ganglion cells, amacrine cells, bipolar cells, horizontal cells and Muller glia.
The cells were then cultured in Retinal Differentiation Medium 1 (RD1) for about one to four days, particularly about two days. Briefly, the RD1 (Table 1) comprised DMEM and F12 at about a 1:1 ratio, knockout serum replacement, MEM NEAA, sodium pyruvate, N-2 supplement, B-27 supplement, and ascorbic acid. In addition, the RD1 comprised a WNT pathway inhibitor (e.g., CKI-7), a BMP pathway inhibitor (e.g., LDN193189), a TGFβ pathway inhibitor (e.g., SB431542), and a MEK inhibitor (e.g., PD325901), and IGF-1. […]

Structures are written as SMILES.

For the compound `Cl.c1ccc2c(-c3cnn4cc(-c5ccc(N6CCNCC6)cc5)cnc34)ccnc2c1` [LDN193189, 4-(6-(4-(piperazin-1-yl)phenyl)pyrazolo[1,5-a]pyrimidin-3-yl)quinoline hydrochloride], the “VSX2 expression after removal of the BMP inhibitor” value was “increase expression of VSX2”.
